Measured values from patent publication US5674840A, “Synthetic aglucodalbaheptide antibiotics” (Gruppo Lepetit SpA, priority 1993, dated 1997).

Assays:
Test in all cases: in vitro antibacterial activity, MIC microdilution
[1] = system: Enterococcus faecalis ATCC 7,080 (L 149); type: cell-based; settings: Mueller-Hinton broth, 0.01% bovine serum albumin, 37° C., 18-24 hours
Description: (§1) The in vitro antibacterial activity of the compounds is determined by means of standard […] tests in microtiter. Iso-Sensitest broth (Oxoid) is used for all bacteria except streptococci (Todd-Wewitt broth, Difco) and enterococci (Mueller-Hinton, Difco). Broth cultures are diluted so that the final inoculum was about 5×10^5 cfu/ml (colony forming units per ml). All broth microdilution MICs are performed in the presence of 0.01% bovine serum albumin (Pentax fraction V, Sigma).

[2] = system: S. epidermidis ATCC 12,228 (L 147); type: cell-based; settings: Iso-Sensitest broth, 0.01% bovine serum albumin, 37° C., 18-24 hours
Description: as §1

[3] = system: S. epidermidis clin. isol. (L 533); type: cell-based; settings: Iso-Sensitest broth, 0.01% bovine serum albumin, 37° C., 18-24 hours
Description: as §1

[4] = system: S. haemolyticus clin, isol. (L 602); type: cell-based; settings: Iso-Sensitest broth, 0.01% bovine serum albumin, 37° C., 18-24 hours
Description: as §1

[5] = system: Staph. aurevi Tour (L 165); type: cell-based; settings: Iso-Sensitest broth, 0.01% bovine serum albumin, 37° C., 18-24 hours
Description: as §1

[6] = system: Strep. pneumoniae UC41 (L 44); type: cell-based; settings: Todd-Wewitt broth, 0.01% bovine serum albumin, 37° C., 18-24 hours
Description: as §1

[7] = system: s. aureus clin. isol. (L 561); type: cell-based; settings: Iso-Sensitest broth, 0.01% bovine serum albumin, 37° C., 18-24 hours
Description: as §1

[8] = system: Strep. pyogenes C203 (L 49); type: cell-based; settings: Todd-Wewitt broth, 0.01% bovine serum albumin, 37° C., 18-24 hours
Description: as §1, with “(Todd-[…]” for “(Todd-Wewitt”, “ml).” for “ml). All broth microdilution MICs are performed in the presence of 0.01% bovine serum albumin (Pentax fraction V, Sigma).”

s. aureus Smith (L 819) = type: cell-based; settings: Iso-Sensitest broth, 0.01% bovine serum albumin, 37° C., 18-24 hours
Description: as §1, with “(Todd-[…]” for “(Todd-Wewitt”, “ml).” for “ml). All broth microdilution MICs are performed in the presence of 0.01% bovine serum albumin (Pentax fraction V, Sigma).”

[9] = system: E. faecalis clin. isol. (L 502); type: cell-based, Enterococcus faecalis; settings: for MIC: E. faecalis clin. isol. (L 502), Mueller-Hinton broth, 0.01% bovine serum albumin, 37° C., 18-24 hours
Description: as §1

Row | Compound | MIC [1] | MIC [2] | MIC [3] | MIC [4] | MIC [5] | MIC [6] | MIC [7] | MIC [8] | MIC (s. aureus Smith (L 819)) | MIC [9] | activity against a clinical isolate of Enterococcus faecalis (in words) ([9]; clinical isolate of Enterococcus faecalis)
1 | teicoplanin | 0.13 mg/1 | 8 mg/1 | 8 mg/1 | 32 mg/1 | 0.13 mg/1 | 0.13 mg/1 | 8 mg/1 | 0.13 mg/1 | 0.25 mg/1 | > 128 mg/1 | –
2 | N[C@H]1C(=O)N[C@@H]2Cc3ccc(c(Cl)c3)Oc3cc4cc(c3O)Oc3ccc(cc3Cl)[C@@H](O)[C@@H]3NC(=O)[C@H](NC(=O)[C@@H]4NC(=O)[C@@H](NC2=O)c2cc(O)cc(c2)Oc2cc1ccc2O)c1ccc(O)c(c1)-c1c(O)cc(O)cc1[C@@H](C(=O)O)NC3=O [teicoplanin aglycon] | 0.13 mg/1 | 0.06 mg/1 | 0.016 mg/1 | 0.25 mg/1 | 0.13 mg/1 | 0.13 mg/1 | 0.13 mg/1 | 0.13 mg/1 | 0.06 mg/1 | > 128 mg/1 | –
3 | (L-phenylalanyl)^3 -(D-lysyl)^15 -aglucoteicoplanin dalbaheptide methyl ester | 0.5 mg/1 | 0.13 mg/1 | 0.13 mg/1 | 0.5 mg/1 | 0.13 mg/1 | 0.13 mg/1 | 0.06 mg/1 | 0.25 mg/1 | 0.13 mg/1 | 16 mg/1 | surprisingly active
